The text below walks through data of US20260231968A1, “AN ECO-FRIENDLY, SUSTAINABLE FOOD PRESERVATIVE” (priority 2023, published 2026).

The test system of one test is Aspergillus flavus. Description: Microbial Growth Inhibition Test, broth microdilution optical method. The format is cell-based. To be noted: 12 μM. The protocol: The IC90 of psoriasin for several microorganisms was determined by Microbial Growth Inhibition Tests. The tests were performed using the Broth Microdilution Optical Method based on standardized protocols M27 (yeasts) and M38 (filamentous fungi) of the Clinical and Laboratory Standards Institute. […] MOPS, LB (Luria-Bertani), and TSB ([…]) medium types were used, depending on the species being tested. The absorbance was calibrated to each species, and was measured between 450 nm to 650 nm.
In addition, ethyl lauroyl arginate (LAE), a commercially available food preservative, was tested in similar growth conditions as a reference.
A general note: Broth dilution looks for growth in wells or tubes with falling amounts of substance.

For test [1], the system named is initial microbial load of plant-based meat substitute. Put plainly: Microbial load of plant-based meat substitute during storage. It counts as cell-based. Here is the method: The ability of psoriasin to extend the shelf life of a plant-based meat substitute was examined under standard storage conditions. Three groups, each stored as an open package at […], were assessed over the course of 16 days. The groups included i) an untreated control, ii) a nisin-treated sample, and iii) a psoriasin-treated sample at 0.65%. A single source of the plant-based meat substitute was used and each group was reproduced in triplicate. The microbial load of the plant-based meat substitute samples was based on the initial microbial load without the addition of antibiotics and without the addition of mold, yeast or bacteria. Samples from each group were taken on days 1, 3, 5, 10, 11 and 16 and total CFU count was determined by plating on LB and PDA agar petri dishes.

Another test has as its system E. coli BL21 cells. Description: E. coli growth in LB with S100a8 / S100a9. The format is cell-based. The conditions noted are these: 37° C; for inhibition of E. coli growth: 0.18 μM to 50 μM. The protocol: E. coli cells in LB media were incubated in a 96-well plate at 37° C. with S100a8 (FIG. 10A) or S100a9 (FIG. 10B) at concentrations varying from 0.18 μM to 50 μM. Optical density was measured every 10 minutes by absorbance at 600 nm over the course of approximately 19 hours. […] In addition, the same experiment was performed using varying equimolar concentrations of S100a8 and S100a9 that were pre-incubated for two hours at 4° C. under constant shaking.

A further test concerns C. albicans. Put plainly: C. albicans growth in RPMI-MOPS with S100a12. To be noted: 30° C, approximately 19 hours. It counts as cell-based, Candida albicans. Here is the method:
C. albicans cells in RPMI-MOPS were incubated in a 96-well plate at 30° C. with S100a12 at concentrations of 0.32, 2.5, 5 and 20 μM (FIG. 11). Optical density was measured every 10 minutes by absorbance at 600 nm over the course of approximately 19 hours.

Where only a bound is given, the exact number is not on record here.

In the case of `CCCCCCCCCCCC(=O)N[C@@H](CCCN=C(N)N)C(=O)OCC` [LAE, ethyl lauroyl arginate, reference compound], the “inhibition of A. flavus growth” value with Aspergillus flavus is reported as “approximately 40%”.
As for nisin [reference compound], the “Yeast & Mold Count” value in test [1] (Day 1) was 2 × 10^2; in test [1] (Day 3), 2 × 10^2; in test [1] (Day 5) it was 1.4 × 10^3; in test [1] (Day 10), 1.47 × 10^4; in test [1] (Day 11), 1.46 × 10^4; in test [1] (Day 16), 3.2 × 10^4. The “Total CFU count” value in test [1] (Day 1, open package, psoriasin 0.65%) is on record as 1.2 × 10^4 CFU; in test [1] (Day 3), 1.2 × 10^4 CFU; in test [1] (Day 5) it was 5 × 10^4 CFU; in test [1] (Day 10), 1.8 × 10^8 CFU; in test [1] (Day 11) it was 2.35 × 10^8 CFU; in test [1] (Day 16), 1.28 × 10^10 CFU.

B1: S100a9: Recombinant S100 protein; human S100a9 sequence SEQ ID NO: 4 (protein, listed as Homo sapiens)
chain: MTCKMSQLERNIETIINTFHQYSVKLGHPDTLNQGEFKELVRKDLQNFLKKENKNEKVIEHIMEDLDTNADKQLSFEEFIMLMARLTWASHEKMHEGDEGPGHHHKPGLGEGTP
Regarding B1, in the test on E. coli BL21 cells, the “inhibition of E. coli growth” value is recorded as “Inhibit Growth of E. coli BL21 Cells”.

B2: S100a12: S100 protein; human S100a12 sequence SEQ ID NO: 6 (protein, listed as Homo sapiens)
chain: MTKLEEHLEGIVNIFHQYSVRKGHFDTLSKGELKQLLTKELANTIKNIKDKAVIDEIFQGLDANQDEQVDFQEFISLVAIALKAAHYHTHKE
Turning to B2, the “concentration with significant inhibition of C. albicans growth” value in the test with C. albicans is at least 0.32 µM.

B3: S100a8: Recombinant S100 protein; human S100a8 sequence SEQ ID NO: 3 (protein, listed as Homo sapiens)
chain: MLTELEKALNSIIDVYHKYSLIKGNFHAVYRDDLKKLLETECPQYIRKKGADVWFKELDINTDGAVNFQEFLILVIKMGVAAHKKSHEESHKE
Turning to B3, the “inhibition of E. coli growth” value in the test on E. coli BL21 cells is “Inhibit Growth of E. coli BL21 Cells”. Moreover, the “concentration giving full inhibition of E. coli growth” value in the test on E. coli BL21 cells (approximately 19 hours, OD 600 nm) is at most 1.5 µM.
